Data from PMC9851200, “Multiparameter phenotypic screening for endogenous TFEB and TFE3 translocation identifies novel chemical series modulating lysosome function” (Autophagy, 2022).
pKd: −log10 of the molar value. Entries after “also recorded” stand apart in the source; their conditions may differ.

Experiments:
[1] = test system: TFE3; experiment: TFE3 nuclear translocation in iPSC-derived i3Neurons; assay type: cell-based, human; conditions: day 10
Method: hiPSCs were maintained under feeder-free conditions in a 37°C, 5% CO2 tissue culture incubator on tissue culture treated dishes coated with growth factor-reduced Matrigel (Corning, 354,277) and fed every 1–2 days with Essential 8 medium (Life Technologies, A1517001), as needed. Accutase ([…] Technologies, 07920) was used to enzymatically dissociate hiPSCs into single cells, and 0.5 mM EDTA was used for routine dissociation to maintain colony growth. To promote cell survival during passaging, cells were passaged with the ROCK/p160-Rho-associated coiled coil kinase inhibitor Y-27632 ([…]; Selleckchem, S1049). hiPSC-derived i^3Neurons were induced and differentiated according to Fernandopulle et al. and replated on high-content 96-well dishes (PerkinElmer, CellCarrierUltra-96) by day 3. […]
After the required compound incubation, media was removed from the wells and the cells were fixed in 4% paraformaldehyde (PFA; ThermoFisher Scientific/Pierce, 28,908) for 20 min. […] The Harmony image analysis software (Perkin Elmer) was used to identify nuclei TFEB or TFE3 positive nuclei, expressed as a percentage of total cell number (See Figure S2 and S3 for analysis protocols). Mean values and standard deviation of DMSO control wells on the plate were calculated. […]

[2] = molecular target: T1, TGFBR1 (Homo sapiens, UniProt P36897); experiment: TGFBR1 binding KD (Table S3)
T1 sequence (P36897 34-503): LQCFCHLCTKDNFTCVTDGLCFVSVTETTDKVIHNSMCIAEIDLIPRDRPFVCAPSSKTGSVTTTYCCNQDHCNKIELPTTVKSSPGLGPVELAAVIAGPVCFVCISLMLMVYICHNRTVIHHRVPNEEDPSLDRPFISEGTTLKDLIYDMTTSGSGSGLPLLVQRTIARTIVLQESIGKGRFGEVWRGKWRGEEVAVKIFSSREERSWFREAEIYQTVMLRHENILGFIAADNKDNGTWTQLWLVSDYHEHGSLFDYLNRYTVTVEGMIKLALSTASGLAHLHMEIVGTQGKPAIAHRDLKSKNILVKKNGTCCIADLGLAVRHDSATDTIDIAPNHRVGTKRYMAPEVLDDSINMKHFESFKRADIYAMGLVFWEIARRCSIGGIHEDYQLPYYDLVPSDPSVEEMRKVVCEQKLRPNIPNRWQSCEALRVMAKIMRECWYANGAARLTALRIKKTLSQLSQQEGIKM
From the text: (§1) Supplement KAUP_A_2095834_SM5251.zip/Supplementary Tables R7.xlsx, sheet "Table S3 - Analogues"

[3] = test system: SRPK1, SRPK2; experiment: KiNativ in-cell kinase binding, SRPK1, SRPK2; conditions: 2 µM
From the text: As KINOMEscan is an in vitro assay, and as different cell types have variable kinase expression profiles we sought to determine the kinase binding profile in our SH-SY5Y TFEB-relocalization cell model. […] Bound kinases were pulled down and analyzed by mass spectrometry to determine the in situ kinase binding profile for each compound.

[4] = test system: TFE3; experiment: TFE3 translocation in CRISPRi PRKD2 or PRKD3 knockdown SH-SY5Y cells; assay type: cell-based; conditions: SH-SY5Y dCas9-KRAB, Scr, PRKD2 or PRKD3 targeting guides, increasing concentrations
[5] = molecular target: CDC42BPG/DMPK2 (Homo sapiens, UniProt Q6DT37); assay type: binding
[6] = molecular target: TGFBR2 (Homo sapiens, UniProt P37173); experiment: KINOMEscan TGFBR2; assay type: binding; conditions: NEW KINOMEscan
[7] = molecular target: PKNB(M.tuberculosis) (Mycobacterium tuberculosis, UniProt P9WI81); assay type: binding
[8] = molecular target: T2, PRKD1 (Homo sapiens, UniProt Q15139); experiment: PRKD1 binding KD (Table S3); conditions: relation sign
T2 sequence (Q15139 1-912): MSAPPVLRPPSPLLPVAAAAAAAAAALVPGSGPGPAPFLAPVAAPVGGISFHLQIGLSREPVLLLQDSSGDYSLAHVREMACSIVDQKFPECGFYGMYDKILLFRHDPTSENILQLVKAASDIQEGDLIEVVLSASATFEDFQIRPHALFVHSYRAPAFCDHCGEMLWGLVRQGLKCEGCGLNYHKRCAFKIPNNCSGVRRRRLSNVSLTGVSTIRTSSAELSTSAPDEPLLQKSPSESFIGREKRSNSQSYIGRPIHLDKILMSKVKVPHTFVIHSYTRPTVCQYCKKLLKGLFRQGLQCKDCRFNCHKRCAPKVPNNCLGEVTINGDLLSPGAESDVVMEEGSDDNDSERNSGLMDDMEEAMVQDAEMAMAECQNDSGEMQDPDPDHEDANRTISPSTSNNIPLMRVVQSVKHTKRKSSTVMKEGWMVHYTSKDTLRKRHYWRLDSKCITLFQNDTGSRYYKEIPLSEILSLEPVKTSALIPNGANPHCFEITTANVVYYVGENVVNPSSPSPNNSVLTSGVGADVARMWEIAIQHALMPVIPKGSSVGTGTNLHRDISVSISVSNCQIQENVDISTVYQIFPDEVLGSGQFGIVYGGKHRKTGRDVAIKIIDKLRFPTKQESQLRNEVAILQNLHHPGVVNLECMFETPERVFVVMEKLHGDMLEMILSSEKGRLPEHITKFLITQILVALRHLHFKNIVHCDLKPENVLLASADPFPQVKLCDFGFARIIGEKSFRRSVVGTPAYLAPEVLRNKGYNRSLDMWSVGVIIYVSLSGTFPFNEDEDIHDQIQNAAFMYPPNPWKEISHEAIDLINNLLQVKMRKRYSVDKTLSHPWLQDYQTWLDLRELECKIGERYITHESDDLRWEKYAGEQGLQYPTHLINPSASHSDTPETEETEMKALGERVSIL
From the text: as §1

Chain of PKNB(M.tuberculosis) (P9WI81 whole entry, looked up): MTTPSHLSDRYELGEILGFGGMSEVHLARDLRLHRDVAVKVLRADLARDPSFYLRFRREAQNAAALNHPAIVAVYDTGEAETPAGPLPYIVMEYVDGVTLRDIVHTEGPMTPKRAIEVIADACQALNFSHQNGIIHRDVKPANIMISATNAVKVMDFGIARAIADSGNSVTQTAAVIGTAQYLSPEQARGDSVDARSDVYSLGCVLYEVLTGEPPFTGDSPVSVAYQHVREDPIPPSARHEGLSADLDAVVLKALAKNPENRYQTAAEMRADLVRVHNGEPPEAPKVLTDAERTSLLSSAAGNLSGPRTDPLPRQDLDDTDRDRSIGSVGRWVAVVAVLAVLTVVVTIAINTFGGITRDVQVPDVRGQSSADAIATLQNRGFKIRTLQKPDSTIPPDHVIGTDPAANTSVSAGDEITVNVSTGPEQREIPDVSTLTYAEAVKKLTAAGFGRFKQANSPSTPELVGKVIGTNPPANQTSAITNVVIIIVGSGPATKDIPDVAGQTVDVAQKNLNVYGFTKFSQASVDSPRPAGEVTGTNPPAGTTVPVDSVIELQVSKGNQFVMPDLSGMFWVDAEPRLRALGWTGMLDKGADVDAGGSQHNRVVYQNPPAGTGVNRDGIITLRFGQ
Chain of TGFBR2 (P37173 23-567): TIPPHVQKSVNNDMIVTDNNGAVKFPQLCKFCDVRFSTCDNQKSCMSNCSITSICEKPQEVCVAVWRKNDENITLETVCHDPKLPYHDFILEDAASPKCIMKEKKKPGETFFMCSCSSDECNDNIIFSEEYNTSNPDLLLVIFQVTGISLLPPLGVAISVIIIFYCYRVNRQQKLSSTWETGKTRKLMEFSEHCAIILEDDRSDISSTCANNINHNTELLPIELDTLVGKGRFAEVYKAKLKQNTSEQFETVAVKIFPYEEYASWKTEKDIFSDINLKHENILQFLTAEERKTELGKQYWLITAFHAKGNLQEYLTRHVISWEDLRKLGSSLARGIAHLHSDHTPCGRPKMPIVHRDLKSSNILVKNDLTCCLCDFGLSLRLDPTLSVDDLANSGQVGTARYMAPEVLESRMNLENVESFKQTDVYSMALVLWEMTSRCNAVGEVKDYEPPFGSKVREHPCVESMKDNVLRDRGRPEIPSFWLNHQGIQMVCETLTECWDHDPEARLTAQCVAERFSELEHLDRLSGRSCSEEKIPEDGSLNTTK
Chain of CDC42BPG/DMPK2 (Q6DT37 whole entry): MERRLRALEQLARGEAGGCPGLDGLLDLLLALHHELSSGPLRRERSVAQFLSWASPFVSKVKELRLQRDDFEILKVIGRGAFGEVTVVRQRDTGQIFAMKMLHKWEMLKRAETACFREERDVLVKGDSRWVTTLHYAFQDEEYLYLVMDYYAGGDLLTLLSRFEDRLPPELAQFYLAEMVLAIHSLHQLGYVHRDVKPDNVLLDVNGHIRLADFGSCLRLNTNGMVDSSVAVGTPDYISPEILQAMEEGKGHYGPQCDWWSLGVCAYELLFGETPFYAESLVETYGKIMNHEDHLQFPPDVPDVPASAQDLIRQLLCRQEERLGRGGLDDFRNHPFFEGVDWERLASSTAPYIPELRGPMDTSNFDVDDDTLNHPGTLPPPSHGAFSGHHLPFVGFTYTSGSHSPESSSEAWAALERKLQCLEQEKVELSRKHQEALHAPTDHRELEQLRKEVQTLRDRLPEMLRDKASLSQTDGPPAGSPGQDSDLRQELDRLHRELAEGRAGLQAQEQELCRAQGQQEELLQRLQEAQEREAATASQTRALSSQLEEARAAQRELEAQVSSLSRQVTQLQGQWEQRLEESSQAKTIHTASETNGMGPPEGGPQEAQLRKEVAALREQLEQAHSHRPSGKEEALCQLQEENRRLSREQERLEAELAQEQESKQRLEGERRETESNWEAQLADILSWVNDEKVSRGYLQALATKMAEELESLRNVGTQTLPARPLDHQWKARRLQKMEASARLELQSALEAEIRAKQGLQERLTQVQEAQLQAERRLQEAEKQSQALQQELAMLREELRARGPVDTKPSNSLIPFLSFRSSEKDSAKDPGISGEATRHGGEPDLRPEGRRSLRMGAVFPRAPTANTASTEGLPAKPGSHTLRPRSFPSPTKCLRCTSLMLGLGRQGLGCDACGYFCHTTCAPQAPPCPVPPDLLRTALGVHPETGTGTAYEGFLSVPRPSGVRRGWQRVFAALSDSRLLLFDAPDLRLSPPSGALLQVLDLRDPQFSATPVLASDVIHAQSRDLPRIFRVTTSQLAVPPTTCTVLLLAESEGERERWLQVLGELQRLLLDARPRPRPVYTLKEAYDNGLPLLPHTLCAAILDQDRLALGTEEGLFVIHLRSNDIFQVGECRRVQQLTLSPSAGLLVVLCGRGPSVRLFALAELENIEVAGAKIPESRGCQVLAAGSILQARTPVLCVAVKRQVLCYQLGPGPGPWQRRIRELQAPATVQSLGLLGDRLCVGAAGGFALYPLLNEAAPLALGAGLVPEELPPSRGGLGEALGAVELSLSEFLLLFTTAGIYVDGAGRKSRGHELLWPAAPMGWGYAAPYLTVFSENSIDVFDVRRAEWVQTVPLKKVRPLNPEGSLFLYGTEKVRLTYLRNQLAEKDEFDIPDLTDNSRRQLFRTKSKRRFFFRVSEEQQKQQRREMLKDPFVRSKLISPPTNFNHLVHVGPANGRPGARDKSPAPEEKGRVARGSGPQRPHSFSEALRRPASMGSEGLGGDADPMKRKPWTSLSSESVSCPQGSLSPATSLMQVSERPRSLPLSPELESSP

| SMILES | Nuclear translocation of TFE3 in i3Neurons (in words) [1] | pKd [2] | KiNativ in-cell binding, % Inhibition, SRPK1, SRPK2 [3] [%] | TFE3 nuclear translocation in response to compound after PRKD knockdown (in words) [4] | KINOMEscan CDC42BPG/DMPK2 [5] | KINOMEscan TGFBR2 [6] | KINOMEscan PKNB(M.tuberculosis) [7] | pKd [8] |
| --- | --- | --- | --- | --- | --- | --- | --- | --- |
| Cc1cccc(-c2nc(Nc3ccc4ncsc4c3)c3ccccc3n2)n1 [NK140] | trend toward upregulation of TFE3 translocation | 5.30 | 80.8 | no increased activity in the TFE3 translocation assay; also recorded: not altered by knockdown of PRKD |  |  |  |  |
| Cc1cccc(-c2nc(Nc3ccc4nn(C)cc4c3)c3ccccc3n2)n1 [NK167] |  |  |  |  | 0 | 0 | 12 |  |
| Cc1cccc(-c2nc(Nc3ccncc3)c3ccccc3n2)n1 [NK215] |  | 8.02 |  |  |  |  |  | 7.89 |
| Cc1cccc(-c2nc(N(C)c3ccc4ncsc4c3)c3ccccc3n2)n1 [NK-161] |  |  |  |  | 21 | 0 | 9 |  |
